The results in this text go back to patent US12390437B2, “Itaconic acid derivatives and uses thereof intreating an inflammatory disease or a disease associated with an undesirable immune response” (Sitryx Therapeutics Limited, priority 2019, dated 2025).

SMILES strings stand for the structures. Where two headings read alike, the source gives them in different places.

For this experiment, the system named is IL-1β cytokine output from THP-1s. As to the kind of experiment: THP-1 AlphaLISA IL-1β cytokine assay. It is filed as cell-based, human. The settings on record: Homo sapiens. On the procedure:
Measuring Inhibitory Effects on IL-1β and IL-6 Cytokine Output from THP-1s
The cytokine inhibition profiles of compounds of formula (IW-1) were determined in a differentiated THP-1 cell assay. All assays were performed in RPMI-1640 growth medium (Gibco), supplemented with 10% fetal bovine serum (FBS; Gibco), 1% penicillin-streptomycin and 1% sodium pyruvate unless specified otherwise. The IL-1β and IL-6 cytokine inhibition assays were each run in a background of differentiated THP-1 cells as described below. All reagents described were from Sigma-Aldrich unless specified otherwise. Compounds were prepared as 10 mM DMSO stocks.
THP-1 cells were expanded as a suspension up to 80% confluence in appropriate growth medium. Cells were harvested, suspended, and treated with an appropriate concentration of phorbol 12-myristate 13-acetate (PMA) over a 72 hr period (37° C./5% CO2).
Following 72 hrs of THP-1 cell incubation, cellular medium was removed and replaced with fresh growth media containing 1% of FBS. Working concentrations of compounds were prepared separately in 10% FBS treated growth medium and pre-incubated with the cells for 30 minutes (37° C./5% CO2). Following the 30 minute compound pre-incubation, THP-1s were treated with an appropriate concentration of LPS and the THP-1s were subsequently incubated for a 24 hr period (37° C./5% CO2). An appropriate final concentration of Nigericin was then dispensed into the THP-1 plates and incubated for 1 hour (37° C./5% CO2) before THP-1 supernatants were harvested and collected in separate polypropylene 96-well holding plates.
Reagents from each of the IL-1β and IL-6 commercial kits (Perkin Elmer) were prepared and run according to the manufacturer's instructions. Subsequently, fluorescence signal detection in a microplate reader was measured (EnVision® Multilabel Reader, Perkin Elmer).
Percentage inhibition was calculated per cytokine by normalising the sample data to the high and low controls used within each plate (+/−LPS respectively). Percentage inhibition was then plotted against compound concentration and the 50% inhibitory concentration (IC50) was determined from the resultant concentration-response curve.

The mark [1] stands for this setting: THP-1, PMA-differentiated THP-1 cells, LPS 24 hr then Nigericin 1 hour, read-out: IL-1β (IC50).
Setting [2] is: PMA-differentiated THP-1 cells, LPS 24 hr then Nigericin 1 hour, read-out: IL-1β (IC50).

`C=C(CC(=O)OC1CCCCCCC1)C(=O)OCC(=O)N1CCC[C@H]1C(=O)O` [Example 104, (2-((4-(cyclooctyloxy)-2-methylene-4-oxobutanoyl)oxy)acetyl)-L-proline]: the half-maximal inhibitory concentration (IC50) under setting [1] is 14.4 µM.

On to `C=C(CC(=O)OC(C1CCCCC1)C(F)(F)F)C(=O)OCC(=O)O` (stereo not shown) [Example 180, 2-((4-(1-cyclohexyl-2,2,2-trifluoroethoxy)-2-methylene-4-oxobutanoyl)oxy)acetic acid], for which, under setting [1], the IC50 turned out to be 8.2 µM. As for `C=C(CC(=O)OC1CCCCC1)C(=O)OC(C(=O)O)C(F)(F)F` (stereo not shown) [Example 121, 2-((4-(cyclohexyloxy)-2-methylene-4-oxobutanoyl)oxy)-3,3,3-trifluoropropanoic acid], the IC50 under setting [1] was determined as 54.2 µM. Take `C=C(CC(=O)OC1(CCCCC)CCC1)C(=O)OCC(=O)O` [Example 194, 2-((2-methylene-4-oxo-4-(1-pentylcyclobutoxy)butanoyl)oxy)acetic acid]: under setting [1], the IC50 amounted to 24.8 µM. With `C=C(CC(=O)OC1CCCCC1)C(=O)O[C@@H](C(=O)O)c1ccccc1` [Example 127, (R)-2-((4-(cyclohexyloxy)-2-methylene-4-oxobutanoyl)oxy)-2-phenylacetic acid], the IC50 under setting [1] is 44.9 µM. On to `C=C(CC(=O)O[C@H](C)CCCCCC)C(=O)O[C@@H](CC(=O)O)C(F)(F)F` [Example 205, (S)-4,4,4-trifluoro-3-((2-methylene-4-(((R)-octan-2-yl)oxy)-4-oxobutanoyl)oxy)butanoic acid], for which the IC50 under setting [1] amounted to 1.7 µM.

Turning to `C=C(CC(=O)OC1CCCCC1)C(=O)OC1CN(C(C)=O)C1` [Example 74, 1-(1-acetylazetidin-3-yl) 4-cyclohexyl 2-methylenesuccinate], the IC50 under setting [1] was 4.2 µM.

Consider `C=C(CC(=O)OC(C(C)(C)C)C(C)(C)C)C(=O)OCC(=O)O` [Example 204, 2-((2-methylene-4-oxo-4-((2,2,4,4-tetramethylpentan-3-yl)oxy)butanoyl)oxy)acetic Acid], for which the IC50 under setting [2] worked out at 41.7 µM.

Consider `C=C(CC(=O)OC1(CCCCC)CC1)C(=O)OCC(=O)O` [Example 206, 2-((2-methylene-4-oxo-4-(1-pentylcyclopropoxy)butanoyl)oxy)acetic acid], for which the IC50 under setting [1] was 19.1 µM. With `C=C(CC(=O)O[C@H](C)CCCCC)C(=O)OCC(=O)O` [Example 173, (R)-2-((4-(heptan-2-yloxy)-2-methylene-4-oxobutanoyl)oxy)acetic acid], under setting [1], the IC50 is 27.6 µM.

Regarding `C=C(CC(=O)OCCCCCCCC)C(=O)OC1CCOCC1` [Example 26, 4-octyl 1-(tetrahydro-2H-pyran-4-yl) 2-methylenesuccinate], the IC50 under setting [1] turned out to be 16.1 µM. As for `C=C(CC(=O)OC1CCCCC1)C(=O)OC1CCCCC1` [Example 167, dicyclohexyl 2-methylenesuccinate], the IC50 under setting [2] stood at 29.1 µM. As for `C=C(CC(=O)OC1CCCCC1(C)C)C(=O)OCC(=O)O` (stereo not shown) [Example 155, 2-((4-((2,2-dimethylcyclohexyl)oxy)-2-methylene-4-oxobutanoyl)oxy)acetic acid], the IC50 under setting [1] came to 16.5 µM. In the case of `C=C(CC(=O)OC1CC2(CCCCC2)C1)C(=O)OCC(=O)O` [Example 153, 2-(2-methylene-4-oxo-4-(spiro[3.5]nonan-2-yloxy)butanoyloxy)acetic acid], the IC50 under setting [1] stood at 7 µM. Consider `C=C(CC(=O)OC1CC2(CCCC2)C1)C(=O)OCC(=O)O` [Example 152, 2-(2-methylene-4-oxo-4-(spiro[3.4]octan-2-yloxy)butanoyloxy)acetic acid], for which, under setting [1], the IC50 was determined as 10.3 µM. `C=C(CC(=O)OC(CCC)CCCC)C(=O)OCC(=O)O` (stereo not shown) [Example 147, 2-(2-methylene-4-(octan-4-yloxy)-4-oxobutanoyloxy)acetic acid]: the IC50 under setting [1] is 13.4 µM.

For the molecule `C=C(CC(=O)O[C@H](C)CCCCCC)C(=O)OCc1cc(=O)[nH]o1` [Example 187, (R)-4-(octan-2-yl) 1-((3-oxo-2,3-dihydroisoxazol-5-yl)methyl) 2-methylenesuccinate], under setting [1], the IC50 was 2.9 µM. Turning to `C=C(CC(=O)O[C@H](C)c1ccc(C(F)(F)F)cc1)C(=O)OCC(=O)O` [Example 200, (R)-2-((2-methylene-4-oxo-4-(1-(4-(trifluoromethyl)phenyl)ethoxy)butanoyl)oxy) acetic acid], the IC50 under setting [1] was 11.5 µM.

As to `C=C(CC(=O)OC(C)CCCCCCC)C(=O)OCC(=O)O` (stereo not shown) [Example 174, 2-((2-methylene-4-(nonan-2-yloxy)-4-oxobutanoyl)oxy)acetic acid], the IC50 under setting [1] was found to be 10.9 µM. Same read-out and setting: the figure for `C=C(CC(=O)OC1C(C)(C)CCCC1(C)C)C(=O)OCC(=O)O` [Example 197] is 21.4 µM; for `C=C(CC(=O)OCCCCCC)C(=O)OCCN1CCCC1=O` [Example 77, 4-hexyl 1-(2-(2-oxopyrrolidin-1-yl)ethyl) 2-methylenesuccinate] it is 14.5 µM. Regarding `C=C(CC(=O)O[C@H](C)C1CCCCC1)C(=O)OCC(=O)O` [Example 184, (R)-2-((4-(1-cyclohexylethoxy)-2-methylene-4-oxobutanoyl)oxy)acetic acid], under setting [1], the half-inhibitory concentration (IC50) came out at 33.9 µM. For `C=C(CC(=O)OC1CCCCC1)C(=O)OCc1nnnn1C` [Example 143, 4-cyclohexyl 1-((1-methyl-1H-tetrazol-5-yl)methyl) 2-methylenesuccinate], the IC50 under setting [1] came out at 2 µM. On the same count and under the same terms, under `C=C(CC(=O)O[C@@H](C)C1CCCCC1)C(=O)OCC(=O)O` [Example 203, (S)-2-((4-(1-cyclohexylethoxy)-2-methylene-4-oxobutanoyl)oxy)acetic acid] stands 22 µM; under `C=C(CC(=O)OC(C)C1CCCCCC1)C(=O)OCC(=O)O` (stereo not shown) [Example 151, 2-((4-(1-cycloheptylethoxy)-2-methylene-4-oxobutanoyl)oxy)acetic acid], 10.3 µM.

Take `C=C(CC(=O)O[C@H](C)CCCCCCC)C(=O)OCC(=O)O` [Example 183, (R)-2-((2-methylene-4-(nonan-2-yloxy)-4-oxobutanoyl)oxy)acetic acid]: the half-inhibitory concentration (IC50) under setting [1] worked out at 9.6 µM. On the same count and under the same terms, the figure for `C=C(CC(=O)OC1CCCCCCC1)C(=O)O[C@@H](C)[C@@H](NC(C)=O)C(=O)O` (stereo in doubt) [Example 136, (2R,3S)-2-acetamido-3-((4-(cyclooctyloxy)-2-methylene-4-oxobutanoyl)oxy)butanoic acid] is 54.2 µM. As to `C=C(CC(=O)O[C@@H](C)CCCCCC)C(=O)OCC(=O)N(C)CC(=O)O` [Example 105, (S)-N-methyl-N-(2-((2-methylene-4-(octan-2-yloxy)-4-oxobutanoyl)oxy)acetyl)glycine], the IC50 under setting [1] was found to be 27.9 µM. For `C=C(CC(=O)OC1C2CCCC1CCC2)C(=O)OCC(=O)O` (stereo not shown) [Example 181, 2-((4-(bicyclo[3.3.1]nonan-9-yloxy)-2-methylene-4-oxobutanoyl)oxy)acetic acid], the IC50 under setting [1] amounted to 32.8 µM. With `C=C(CC(=O)OC1CCC2(CCC2)CC1)C(=O)OCC(=O)O` [Example 154, 2-(2-methylene-4-oxo-4-(spiro[3.5]nonan-7-yloxy)butanoyloxy)acetic acid], the IC50 under setting [1] was 8.4 µM. Still for that read-out and setting: under `C=C(CC(=O)O[C@@H](C)CCCCCC)C(=O)OCC(=O)NCC(=O)O` [Example 106, (S)-(2-((2-methylene-4-(octan-2-yloxy)-4-oxobutanoyl)oxy)acetyl)glycine] stands 15.6 µM. With `C=C(CC(=O)OCC(=O)O)C(=O)OCCS(=O)(=O)c1cccc(Cl)c1` [Example 126, 2-((3-((2-((3-chlorophenyl)sulfonyl)ethoxy)carbonyl)but-3-enoyl)oxy)acetic acid], under “THP-1, read-out: IL-1β (IC50)”, the IC50 stood at 0.7 µM. As for `C=C(CC(=O)OC1(C2CCCCC2)CC1)C(=O)OCC(=O)O` [Example 202, 2-((4-(1-cyclohexylcyclopropoxy)-2-methylene-4-oxobutanoyl)oxy)acetic acid], the IC50 under setting [2] is 36.7 µM. Turning to `C=C(CC(=O)O[C@@H](C)CCCCCC)C(=O)OC(c1nn[nH]n1)C1CC1` (stereo partly drawn) [Example 166, 1-(cyclopropyl(1H-tetrazol-5-yl)methyl) 4-((S)-octan-2-yl) 2-methylenesuccinate], the IC50 under setting [1] amounted to 67.4 µM. Same read-out and setting: under `C=C(CC(=O)OC(C)C1CCCCC1)C(=O)OCC(=O)O` (stereo not shown) [Example 150, 2-((4-(1-cyclohexylethoxy)-2-methylene-4-oxobutanoyl)oxy)acetic acid] stands 11.7 µM. Regarding `C=C(CC(=O)OC(C)Cc1cc(Cl)cc(Cl)c1)C(=O)OCC(=O)O` (stereo not shown) [Example 177, 2-((4-((1-(3,5-dichlorophenyl)propan-2-yl)oxy)-2-methylene-4-oxobutanoyl)oxy)acetic acid], the IC50 under setting [1] is 20.5 µM. As for `C=C(CC(=O)OC1(C2CCCCC2)CCC1)C(=O)OCC(=O)O` [Example 191, 2-((4-(1-cyclohexylcyclobutoxy)-2-methylene-4-oxobutanoyl)oxy)acetic acid], the IC50 under setting [1] worked out at 26.6 µM.
